The target in assay [1] is T1, HetC (Nostoc sp. PCC 7120 = FACHB-418, UniProt A0ACD7RTN5).
T1 construct: HetCNTD, N-terminal domain (first 480 residues; includes C39 peptidase domain), hexa-his tagged
T1 sequence (A0ACD7RTN5 1-480): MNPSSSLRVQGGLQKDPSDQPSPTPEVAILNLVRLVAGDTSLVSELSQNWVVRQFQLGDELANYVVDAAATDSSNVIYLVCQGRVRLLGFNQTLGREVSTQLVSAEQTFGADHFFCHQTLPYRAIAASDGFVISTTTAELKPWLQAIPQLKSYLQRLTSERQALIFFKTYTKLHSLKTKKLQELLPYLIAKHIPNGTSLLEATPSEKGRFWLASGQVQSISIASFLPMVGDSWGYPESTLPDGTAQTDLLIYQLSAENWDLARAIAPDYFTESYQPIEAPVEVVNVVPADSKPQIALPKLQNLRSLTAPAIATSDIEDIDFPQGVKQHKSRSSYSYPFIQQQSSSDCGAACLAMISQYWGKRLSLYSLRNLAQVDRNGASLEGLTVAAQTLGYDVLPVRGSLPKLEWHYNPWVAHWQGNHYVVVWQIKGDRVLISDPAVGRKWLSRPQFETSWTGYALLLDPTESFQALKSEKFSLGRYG
Briefly: chromogenic peptidase assay at […] nm with purified HetCNTD, […] substrate. The format is biochemical.

Assay [2] has as its target T2, HetC (Nostoc sp. PCC 7120 = FACHB-418, UniProt A0ACD7RTN5).
T2 construct: HetCNTD, N-terminal domain (first 480 residues)
Description: ITC (triplicate), supported by nanoDSF shift (ΔTm […] °C at […]). The format is binding.

Experimental findings from publication PMC10986499, “Unravelling HetC as a peptidase-based ABC exporter driving functional cell differentiation in the cyanobacterium Nostoc PCC 7120” (Microbiology Spectrum, 2024) are described below.

For `N=C(N)NCCC[C@H](N)C(=O)Nc1ccc([N+](=O)[O-])cc1` [L-Arginine p-nitroanilide], the “chromogenic peptidase assay at 405 nm with purified HetCNTD, 1 mM substrate” value on HetC [1] is reported as 0.22 ± 0.08 pmol/min/µg of protein.

For the compound `Nc1nc2c(ncn2[C@@H]2O[C@H](COP(=O)(O)OP(=O)(O)O)[C@@H](OP(=O)(O)OP(=O)(O)O)[C@H]2O)c(=O)[nH]1` [ppGpp], the Kd (as a rule, the equilibrium constant for the complex coming apart) at HetC [2] is around 59 µM.
